# In patent publication US9227971B2, “Pyrazolo[1,5-a]pyrimidine compounds as mTOR inhibitors” (Merck Sharp & Dohme Corp., priority 2010, dated 2016):
# Like-named read-outs stand apart in the source and are kept apart here.
# What was measured:
# [1] = system: phosphorylated AKT Ser473 (pAKT S473), mTORC2 activity, PC3 cells; assay: mTOR target engagement assay, immunofluorescent cell-based, pAKT S473 readout (mTORC2 activity); settings: compound treatment ninety minutes at 37° C.
# Method in brief: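 After blocking, cells were stained overnight at 4 °C with anti-pAKT S473 antibody, then a fluorescent secondary; inhibition was read as reduced fluorescence intensity.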
# [2] = system: phosphorylated 4E-BP1 Thr37/46 (p4E-BP1 Thr37/46), mTORC1 activity, PC3 cells; assay: mTOR target engagement assay, immunofluorescent cell-based, p4E-BP1 Thr37/46 readout (mTORC1 activity); settings: compound treatment ninety minutes at 37° C., read-out: p4E-BP1 Thr37/46 IC50
# Method: The target engagement of mTOR kinase inhibitors was evaluated using an immunofluorescent cell-based assay. In this assay, inhibition of mTORC1 activity was measured by the reduction in the level of phosphorylated 4E-BP1^[…] (p4E-BP1 Thr37/46), and inhibition of mTORC2 activity was measured by the reduction of phosphorylated AKT^Ser473 (pAKT S473).
# PC3 cells (prostate tumor cell-line that contains a mutation in the tumor suppressor PTEN, that promotes the phosphorylation and activation of AKT and 4E-BP1) were used in the immunofluorescence assay. PC3 cells were seeded on 384 well plates (black clear bottom, Matrix #4332) overnight. PC3 cells were then treated with 40 μl of the serially diluted test compounds (in 5% fetal bovine serum, F12 medium containing 0.25% DMSO) for ninety minutes at 37° C. The test compound solution was removed, and the plates were washed gently two times with 25 μl phosphate buffered saline (PBS). The cells were fixed by adding 25 μl of Prefer reagent (from Anatech LTD, Cat#414, a glyoxal fixative for fixing proteins within a cell) for sixty minutes followed by three washes with PBS. 5% Goat serum in PBS/0.3% Triton was used to block non-specific binding (60 minutes).
# The primary antibodies targeting pAKT S473 and p4E-BP1 Thr37/46 were diluted into PBS/0.3% Triton and incubated with the cells overnight at 4° C. The antibodies targeting pAKTS473 (Cat#4085, Cell signaling) and p4E-BP1 Thr37/46 (Cat#2855, Cell signaling) were used at a 1:100 dilution. Plates were washed three times with PBS/0.1% Tween 20 before adding the secondary antibody at a 1:200 dilution. (goat anti-rabbit containing a fluorescent label, Alexa Fluor 488, Cat#A11008, Invitrogen) in PBS/0.3% Triton for 60 minutes.
# Finally, the plates were washed three times with PBS/0.1% Tween 20 and the fluorescent intensity was read using an Analyst HT from Molecular Devices. The fluorescent intensity values from the serially diluted compound treatment group were analyzed using the Xlfit 4 program ([…]) (Formula 205: Y=Bottom+(Top-Bottom)/(1+(IC50/X)^Hillslope) to generate the IC50 value. Where Top is the maximum signal without Compound (+DMSO only) and Bottom represents maximum inhibition. Y is the fluorescence at some compound concentration. The control used to determine the fluorescent intensities for 100% pAKT S473 or 100% phosphorylated p4E-BP1 Thr37/46 were measured from untreated wells that contained only DMSO, instead of test compound.
Structure (SMILES),"IC50 ([1]; Homo sapiens, PC-3, PC3 cells) [nM]","IC50 ([2]; Homo sapiens, PC-3, PC3 cells) [nM]",IC50 ([1]; PC3 cells) [nM],IC50 ([2]; PC3 cells) [nM]
"CC(=O)c1c([C@@H]2C[C@H]3CC[C@@H](C2)N3C(=O)CNS(C)(=O)=O)nc2c(-c3ccc(-c4ccccc4)nc3)cnn2c1N [Compound 1.1.23, N-(2-((1R,3s,5S)-3-(6-acetyl-7-amino-3-(6-phenylpyridin-3-yl)pyrazolo[1,5-a]pyrimidin-5-yl)-8-azabicyclo[3.2.1]octan-8-yl)-2-oxoethyl)methanesulfonamide]",100 to 1000,100 to 1000,,
"CC(=O)c1c(C2CC3CCC(C2)N3C(=O)c2nn[nH]n2)nc2c(-c3ccc(-c4ccccc4)nc3)cnn2c1N [Compound 1.1.24, 1-(5-((1R,3s,5S)-8-(1H-tetrazole-5-carbonyl)-8-azabicyclo[3.2.1]octan-3-yl)-7-amino-3-(6-phenylpyridin-3-yl)pyrazolo[1,5-a]pyrimidin-6-yl)ethanone]",1000 to 10000,1000 to 10000,,
"NC(=O)c1c([C@@H]2C[C@H]3CC[C@@H](C2)N3C(=O)c2nc[nH]n2)nc2c(-c3ccc(-c4ccccc4)nc3)cnn2c1N [Compound 1.1.25, 5-((1R,3s,5S)-8-(1H-1,2,4-triazole-3-carbonyl)-8-azabicyclo[3.2.1]octan-3-yl)-7-amino-3-(6-phenylpyridin-3-yl)pyrazolo[1,5-a]pyrimidine-6-carboxamide]",1 to 100,1 to 100,,
"CC(=O)c1c([C@@H]2C[C@H]3CC[C@@H](C2)N3C(=O)c2nc[nH]n2)nc2c(-c3ccc(-c4ncc(C(F)F)s4)nc3)cnn2c1N [Compound 1.1.26, 1-(5-((1R,3s,5S)-8-(1H-1,2,4-triazole-3-carbonyl)-8-azabicyclo[3.2.1]octan-3-yl)-7-amino-3-(6-(5-(difluoromethyl)thiazol-2-yl)pyridin-3-yl)pyrazolo[1,5-a]pyrimidin-6-yl)ethanone]",100 to 1000,100 to 1000,,
"CNC(=O)c1ccc(-c2cnn3c(N)c(C(C)=O)c([C@@H]4C[C@H]5CC[C@@H](C4)N5C(=O)c4nc[nH]n4)nc23)cn1 [Compound 1.1.28, 5-(5-((1R,3s,5S)-8-(1H-1,2,4-triazole-3-carbonyl)-8-azabicyclo[3.2.1]octan-3-yl)-6-acetyl-7-aminopyrazolo[1,5-a]pyrimidin-3-yl)-N-methylpicolinamide]",1000 to 10000,1000 to 10000,,
"CC(=O)c1c([C@@H]2C[C@H]3CC[C@@H](C2)N3C(=O)c2nnc[nH]2)nc2c(-c3cnc(-c4ccccc4)c(O)c3)cnn2c1N [Compound 1.1.31, 1-(5-((1R,3s,5S)-8-(4H-1,2,4-triazole-3-carbonyl)-8-azabicyclo[3.2.1]octan-3-yl)-7-amino-3-(5-hydroxy-6-phenylpyridin-3-yl)pyrazolo[1,5-a]pyrimidin-6-yl)ethanone]",1000 to 10000,1000 to 10000,,
"CC(=O)c1c([C@@H]2C[C@H]3CC[C@@H](C2)N3C(=O)CO)nc2c(-c3cnc(-c4ccccc4)c(O)c3)cnn2c1N [Compound 1.1.32, 1-((1R,3s,5S)-3-(6-acetyl-7-amino-3-(5-hydroxy-6-phenylpyridin-3-yl)pyrazolo[1,5-a]pyrimidin-5-yl)-8-azabicyclo[3.2.1]octan-8-yl)-2-hydroxyethanone]",1000 to 10000,1000 to 10000,,
"CC(=O)c1c([C@@H]2C[C@H]3CC[C@@H](C2)N3C(=O)CO)nc2c(-c3ccc(-c4nccs4)nc3)cnn2c1N [Compound 1.1.33, 1-((1R,3s,5S)-3-(6-acetyl-7-amino-3-(6-(thiazol-2-yl)pyridin-3-yl)pyrazolo[1,5-a]pyrimidin-5-yl)-8-azabicyclo[3.2.1]octan-8-yl)-2-hydroxyethanone]",1 to 100,100 to 1000,,
"COc1ccc(-c2ccc(-c3cnn4c(N)c(C(C)=O)c([C@@H]5C[C@H]6CC[C@@H](C5)N6C(=O)CO)nc34)cn2)cc1CO [Compound 1.1.36, 1-((1R,3s,5S)-3-(6-acetyl-7-amino-3-(6-(3-(hydroxymethyl)-4-methoxyphenyl)pyridin-3-yl)pyrazolo[1,5-a]pyrimidin-5-yl)-8-azabicyclo[3.2.1]octan-8-yl)-2-hydroxyethanone]",1 to 100,1 to 100,,
"CC(=O)c1c([C@@H]2C[C@H]3CC[C@@H](C2)N3C(=O)c2nnc[nH]2)nc2c(-c3ccc(-c4nccs4)nc3)cnn2c1N [Compound 1.1.37, 1-(5-((1R,3s,5S)-8-(4H-1,2,4-triazole-3-carbonyl)-8-azabicyclo[3.2.1]octan-3-yl)-7-amino-3-(6-(thiazol-2-yl)pyridin-3-yl)pyrazolo[1,5-a]pyrimidin-6-yl)ethanone]",1 to 100,1 to 100,,
"CC(=O)c1c([C@@H]2C[C@H]3CC[C@@H](C2)N3C(=O)c2nnc[nH]2)nc2c(-c3ccc4ccc(F)cc4c3)cnn2c1N [Compound 1.1.38, 1-(5-((1R,3s,5S)-8-(4H-1,2,4-triazole-3-carbonyl)-8-azabicyclo[3.2.1]octan-3-yl)-7-amino-3-(7-fluoronaphthalen-2-yl)pyrazolo[1,5-a]pyrimidin-6-yl)ethanone]",,,100 to 1000,1 to 100
"CNC(=O)N1[C@@H]2CC[C@H]1C[C@H](c1nc3c(-c4ccc(-c5ccccc5)nc4)cnn3c(N)c1C(C)=O)C2 [Compound 1.1.39, (1R,3s,5S)-3-(6-acetyl-7-amino-3-(6-phenylpyridin-3-yl)pyrazolo[1,5-a]pyrimidin-5-yl)-N-methyl-8-azabicyclo[3.2.1]octane-8-carboxamide]",1 to 100,1 to 100,,
"CC(=O)c1c([C@@H]2C[C@H]3CC[C@@H](C2)N3C(=O)c2nnc(O)[nH]2)nc2c(-c3ccc(-c4ccccc4)nc3)cnn2c1N [Compound 1.1.40, 1-(7-amino-5-((1R,3s,5S)-8-(5-hydroxy-4H-1,2,4-triazole-3-carbonyl)-8-azabicyclo[3.2.1]octan-3-yl)-3-(6-phenylpyridin-3-yl)pyrazolo[1,5-a]pyrimidin-6-yl)ethanone]",100 to 1000,100 to 1000,,
"CC(=O)c1c([C@@H]2C[C@H]3CC[C@@H](C2)N3C(=O)c2cc[nH]c2)nc2c(-c3ccc(-c4ccccc4)nc3)cnn2c1N [Compound 1.1.41, 1-(5-((1R,3s,5S)-8-(1H-pyrrole-3-carbonyl)-8-azabicyclo[3.2.1]octan-3-yl)-7-amino-3-(6-phenylpyridin-3-yl)pyrazolo[1,5-a]pyrimidin-6-yl)ethanone]",1 to 100,1 to 100,,
"CC(=O)c1c([C@@H]2C[C@H]3CC[C@@H](C2)N3S(=O)(=O)c2nnc[nH]2)nc2c(-c3ccc(-c4ccccc4)nc3)cnn2c1N [Compound 1.1.42, 1-(5-((1R,3s,5S)-8-(4H-1,2,4-triazol-3-ylsulfonyl)-8-azabicyclo[3.2.1]octan-3-yl)-7-amino-3-(6-phenylpyridin-3-yl)pyrazolo[1,5-a]pyrimidin-6-yl)ethanone]",100 to 1000,100 to 1000,,
"CC(=O)c1c([C@@H]2C[C@H]3CC[C@@H](C2)N3C(=O)c2ccc[nH]2)nc2c(-c3ccc(-c4ccccc4)nc3)cnn2c1N [Compound 1.1.43, 1-(5-((1R,3s,5S)-8-(1H-pyrrole-2-carbonyl)-8-azabicyclo[3.2.1]octan-3-yl)-7-amino-3-(6-phenylpyridin-3-yl)pyrazolo[1,5-a]pyrimidin-6-yl)ethanone]",100 to 1000,100 to 1000,,
